Measurements from US7777073B2, “Topical delivery system for antiaging and skin whitening agents” (Bioderm Research, priority 2004, dated 2010).
Entries after “also recorded” stand apart in the source; their conditions may differ. Read-outs that look alike come from different tables or passages of the source.

Tests used:
[1] = target: T1, Recombinant human MMP-1 enzyme (Homo sapiens, UniProt P03956); assay: In vitro inhibition of MMP-1; type: biochemical; settings: enzyme activated with APMA, read-out: 50% Inhibition Concentration MMP-1 (converted)
T1 construct: purchased R&D Systems
T1 sequence (P03956 100-469): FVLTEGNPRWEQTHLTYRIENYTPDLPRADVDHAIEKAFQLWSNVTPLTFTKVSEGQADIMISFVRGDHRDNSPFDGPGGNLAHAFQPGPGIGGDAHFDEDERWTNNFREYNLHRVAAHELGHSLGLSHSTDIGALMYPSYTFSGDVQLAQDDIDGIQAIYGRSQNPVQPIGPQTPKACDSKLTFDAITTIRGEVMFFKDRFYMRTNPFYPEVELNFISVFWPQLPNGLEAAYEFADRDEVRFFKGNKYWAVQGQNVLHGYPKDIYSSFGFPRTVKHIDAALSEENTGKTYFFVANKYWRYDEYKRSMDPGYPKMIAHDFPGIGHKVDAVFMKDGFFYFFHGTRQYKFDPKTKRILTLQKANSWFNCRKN
From the text: (§1) In vitro specific inhibition of MMP-2 and MMP-9 activity by [R]-(N-[(2,4-dihydroxyphenyl)ethyl]glycine and [S]-N-[(2,4-dihydroxyphenyl)ethyl]glycine was estimated with assay kits from Biomol Corporation. Recombinant human MMP-1 enzyme was obtained from R&D Systems. The enzyme was first activated with APMA according to the protocol provided by R&D Systems. The experimental conditions for the screening of MMP-1 inhibitors were similar to the settings used for MMP-2 and MMP-9 testing.
(§2) In vitro inhibition of MMP1, 2 and 9 for several samples (mcg=micro-grams).

skin = assay: Differences in antiaging and skin whitening affect of [S] and [R] isomers
mushroom tyrosinase = assay: Inhibition of tyrosinase, kinetic analysis; type: biochemical; settings: for IC50: 20 C, phosphate buffer 100 mM, pH 6.8, read-out: Tyrosinase Inhibitory Concentration
Description: Method. Kinetic analysis of 2,4 DHA inhibition.
All reactions were performed at 20 C, in phosphate buffer 100 mM, pH 6.8, mushroom tyrosinase.

Matrix metalloproteases = assay: In vitro inhibition of Matrix metalloproteases, overall assessment; type: biochemical
From the text: as §1

MMP-2 = target: T2, MMP-2 (Homo sapiens, UniProt P08253); assay: In vitro inhibition of MMP-2 (Biomol assay kit); type: biochemical; settings: read-out: 50% Inhibition Concentration MMP-2 (converted)
T2 construct: purchased Biomol Corporation
From the text: as §1, §2

MMP-9 = target: T3, MMP-9 (Homo sapiens, UniProt P14780); assay: In vitro inhibition of MMP-9 (Biomol assay kit); type: biochemical; settings: read-out: 50% Inhibition Concentration MMP-9 (converted)
T3 construct: purchased Biomol Corporation
From the text: as §1, §2

T2 sequence (P08253 110-452 limits assumed, species assumed): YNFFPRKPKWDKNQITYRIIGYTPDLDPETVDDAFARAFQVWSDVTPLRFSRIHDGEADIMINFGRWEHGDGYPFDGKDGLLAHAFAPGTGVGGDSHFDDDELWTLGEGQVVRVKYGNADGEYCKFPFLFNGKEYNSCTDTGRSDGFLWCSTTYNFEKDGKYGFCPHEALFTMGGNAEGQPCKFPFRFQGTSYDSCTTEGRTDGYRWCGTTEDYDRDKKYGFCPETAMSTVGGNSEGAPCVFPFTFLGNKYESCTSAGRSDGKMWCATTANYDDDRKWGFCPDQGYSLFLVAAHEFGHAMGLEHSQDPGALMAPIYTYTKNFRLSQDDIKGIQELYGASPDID
T3 sequence (P14780 107-444 limits assumed, species assumed): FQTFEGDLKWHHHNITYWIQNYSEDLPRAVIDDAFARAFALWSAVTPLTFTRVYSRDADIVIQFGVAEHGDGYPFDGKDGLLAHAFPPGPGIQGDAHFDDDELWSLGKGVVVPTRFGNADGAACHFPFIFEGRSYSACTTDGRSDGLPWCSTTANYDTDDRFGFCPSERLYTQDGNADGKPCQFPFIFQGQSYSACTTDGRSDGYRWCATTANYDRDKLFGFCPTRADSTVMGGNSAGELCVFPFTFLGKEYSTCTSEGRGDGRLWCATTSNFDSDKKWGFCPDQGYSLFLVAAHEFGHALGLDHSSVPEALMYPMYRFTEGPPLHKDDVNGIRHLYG

Compound	IC50 [1]	Skin whitening benefits, [R] versus [S] isomer (skin)	Tyrosinase inhibition (in words) (mushroom tyrosinase)	IC50 (mushroom tyrosinase)	Tyrosinase inhibition (in words) (mushroom tyrosinase; listed as [R]-(N-[(2,4-dihydroxyphenyl)ethyl]glycine))	MMP inhibition (in words) (Matrix metalloproteases; MMP1, 2 and 9)	MMP inhibition (in words) (Matrix metalloproteases; MMP1, 2 and 9, listed as [R]-(N-[(2,4-dihydroxyphenyl)ethyl]glycine))	IC50 (MMP-2)	IC50 (MMP-9)	Antiwrinkle properties, [S] versus [R] isomer (skin)
C[C@@H](NCC(=O)O)c1ccc(O)cc1O	94.7 µM	better skin whitening benefits	excellent inhibitor	5000 µM	anti-tyrosinase activity	very good and general inhibition	MMP inhibition	71 µM	94.7 µM	
OC[C@H]1O[C@@H](Oc2ccc(O)cc2)[C@H](O)[C@@H](O)[C@@H]1O [Arbutin, reference compound]				25000 µM						
C[C@H](NCC(=O)O)c1ccc(O)cc1O [[S]-N-[(2,4-dihydroxyphenyl)ethyl]glycine]	166 µM		anti-tyrosinase activity; also recorded: excellent inhibitor	10000 µM		MMP inhibition; also recorded: just a bit weaker, but still quite acceptable		189 µM	284 µM	better antiwrinkle properties
